{"source": "patent US20120058057A1", "about": "“Anti-dandruff Agents” (MERCK PATENT GMBH, priority 2009, published 2012)", "key": {"[1]": {"tested_on": "Staphylococcus epidermidis", "assay": "Challenge test (Ph.Eur. 5.1.3), germ count over time, Staphylococcus epidermidis", "type": "cell-based", "settings": "1.0% in water"}, "Malassezia furfur": {"tested_on": "Malassezia furfur", "assay": "Challenge test (Ph.Eur. 5.1.3), germ count over time, Malassezia furfur", "type": "cell-based", "settings": "for total number of microorganisms (linear scale) / total number of microorganisms (log-scale): 1.0% in water", "method": "The challenge testing procedure consists in challenging a non-contaminated antimicrobial product according to the invention with a prescribed inoculum of suitable microorganisms and storing the inoculated product at a prescribed temperature, e.g. room temperature. The number of organisms surviving in the test products is determined at specified intervals of time.\nAccording to the description given in the European pharmacopea (Ph.Eur.5 Ausgabe, Grundwerk 2005, §5.1.3), the challenge tests are done following the procedure given thereafter.\nProduction of the Inoculum\nA fresh stock culture of the specific micro-organsisms is inoculated on the surface of Agar medium B for bacteria and on the surface of Agar medium C for fungi. The bacteria culture will be incubated until sufficient sporulation (18-24h at 30-35° C.) In order to harvest the bacteria, the surface of the Agar media is washed out with a sterile solution containing sodium chloride (9 g/l) and poured into an adequate vessel. The concentration of germs in the suspension will be adjusted with the same solution to a concentration closed to 10^8 micro-organism/ml. Immediately after that action, a sample of this suspension is taken and the germ concentration in CFU/ml will be measured thanks to the method of membran filtration or counting on Agar plate. This value serves determining the value of the inoculum. The suspension must be used immediately.\nMethod of Determination of Germ Count\nIn order to determine the number of micro-organisms in the inoculated preparation (containing also the antimicrobial product according to invention), the same Agar medium as for the preparation of the inoculum will be used.\nThe aqueous suspension/solution containing 1% of the used ionic liquids (=verum) is inoculated with a suspension of the tests micro-organisms (Malassezia furfur) in such a way that a concentration from 10^5 to 10^6 microorganism/ml of the preparation is reached. The inoculated volume should not be above 1% v/v of the overall test solution. The suspension will be mixed in order to get a good homogenisation.\nWater alone (=placebo) is treated in the same way. Antifungicidial activity of the verum will be detected once the survival rate of a microorganism for the verum is significantely lower than for the placebo.\nThe inoculated preparation is stored away from the daylight at 20-25° C. In order to begin the test, 1 g or 1 ml samples from the tests preparation (containing the inoculated micro-organsisms and the antimicrobial product according to the invention) will be taken at different intervals of time (in our case , 0.2 min, 5 min, 30 min, 1 h, 3 h, 6 h, 24 h) and the number of microorganisms will be measured using the Agar plate or the membrane filtration method. It is important to make sure that any remaining antimicrobial activity to be eliminated by dilution, filtration or specific inactivation."}, "[2]": {"settings": "Malassezia furfur, incubation 0 h"}, "[3]": {"settings": "Malassezia furfur, incubation 1 h"}, "[4]": {"settings": "Malassezia furfur, incubation 3 h"}, "[5]": {"settings": "Malassezia furfur, incubation 6 h"}, "[6]": {"settings": "Malassezia furfur, incubation 24 h"}}, "data": [{"smiles": "CC[N+](C)(C)CCOC", "note": "[compound 1136, N-ethyl-N,N-dimethyl-2-methoxyethylammonium propionate]", "values": [{"measurement": "total number of microorganisms (linear scale)", "setting": "[1]; incubation 0 h", "result": 210000}, {"measurement": "total number of microorganisms (log-scale)", "setting": "[1]; incubation 0 h", "result": 5.3}, {"measurement": "total number of microorganisms (linear scale)", "setting": "[1]; incubation 1 h", "result": 160000}, {"measurement": "total number of microorganisms (log-scale)", "setting": "[1]; incubation 1 h", "result": 5.2}, {"measurement": "total number of microorganisms (linear scale)", "setting": "[1]; incubation 3 h", "result": 180000}, {"measurement": "total number of microorganisms (log-scale)", "setting": "[1]; incubation 3 h", "result": 5.3}, {"measurement": "total number of microorganisms (linear scale)", "setting": "[1]; incubation 6 h", "result": 170000}, {"measurement": "total number of microorganisms (log-scale)", "setting": "[1]; incubation 6 h", "result": 5.2}, {"measurement": "total number of microorganisms (linear scale)", "setting": "[1]; incubation 24 h", "result": 22000}, {"measurement": "total number of microorganisms (log-scale)", "setting": "[1]; incubation 24 h", "result": 4.3}, {"measurement": "antifungicidial / microbicidal activity against Malassezia furfur (in words)", "setting": "Malassezia furfur; Malassezia furfur", "result": "unique antifungicidial activity"}, {"measurement": "total number of microorganisms (linear scale)", "setting": "Malassezia furfur; [2]", "result": 45000}, {"measurement": "total number of microorganisms (log-scale)", "setting": "Malassezia furfur; [2]", "result": 4.7}, {"measurement": "total number of microorganisms (linear scale)", "setting": "Malassezia furfur; [3]", "result": 41000}, {"measurement": "total number of microorganisms (log-scale)", "setting": "Malassezia furfur; [3]", "result": 4.6}, {"measurement": "total number of microorganisms (linear scale)", "setting": "Malassezia furfur; [4]", "result": 36000}, {"measurement": "total number of microorganisms (log-scale)", "setting": "Malassezia furfur; [4]", "result": 4.6}, {"measurement": "total number of microorganisms (linear scale)", "setting": "Malassezia furfur; [5]", "result": 33000}, {"measurement": "total number of microorganisms (log-scale)", "setting": "Malassezia furfur; [5]", "result": 4.5}, {"measurement": "total number of microorganisms (linear scale)", "setting": "Malassezia furfur; [6]", "result": 100}, {"measurement": "total number of microorganisms (log-scale)", "setting": "Malassezia furfur; [6]", "result": 2.0}, {"measurement": "selectivity of growth inhibition: Malassezia furfur versus desired skin microorganisms (e.g. Staphylococcus epidermidis)", "setting": "Malassezia furfur; in words", "result": "selectively inhibit the growth of the undesired microorganism Malassezia furfur"}]}]}
